Laboratory results taken from patent US7727736B2, “Soluble phospholipids for use in clotting factor assays” (The University of North Carolina at Chapel Hill, priority 2003, dated 2010).

Key:
factor VIII = target: T1, factor VIII (Homo sapiens, UniProt P00451); assay: Chromogenic FVIII assay; type: biochemical; details: normal pooled plasma (100% factor VIII), varying C6PS
T1 construct: using normal pooled plasma (100% factor VIII); from tissue; host or cells: normal pooled plasma
Description: For the chromogenic […], a standard curve was prepared by diluting normal pooled plasma (which had 1 U/mL […] according to the certification sheets) into […] to give levels of 100% factor VIII, 75%, 50%, 25%, and 10% along with the factor VIII deficient plasma, which has 0% factor VIII.
Two mixtures were prepared. Mixture #1 consisted of thrombin—3 nM, factor IXa—3 nM, factor X—7.2 μg/mL, calcium—12 mM in a buffer of 20 mM Tris (pH 7.9), 150 mM NaCl. Also included in Mixture #1 were either lipid vesicles (lipid unilamellar vesicles; “LUV”)—20 μM or C6PS—2,625 μM. Mixture #2 consisted of hirudin—60 nM and Pefachrome FXa—1.8 mM in a buffer of 20 mM Tris (pH 7.9), 150 mM NaCl.
Factor VIII levels were assayed by adding 25 μL plasma to 2000 μL of buffer. 50 μL of the diluted plasma, 100 μL Mixture #1, and […] were incubated at 37° C. for 3 minutes. […] Finally, 50 μL of Mixture #2 was added to diluted plasma+Mixture #1 and the reaction was monitored at 405 nm for 5 minutes. The rate is the change in absorbance between 30 seconds and 120 seconds expressed as mOD/minute. […]
The effect of varying C6PS levels was also monitored as described above using normal pooled plasma (100% factor VIII), except that the concentration of C6PS in Mixture #1 was varied by serial dilution into buffer before being added to the final Mixture #1.

[1] = pure C6PS; cited from earlier work

T1 sequence (P00451 20-391 limits assumed): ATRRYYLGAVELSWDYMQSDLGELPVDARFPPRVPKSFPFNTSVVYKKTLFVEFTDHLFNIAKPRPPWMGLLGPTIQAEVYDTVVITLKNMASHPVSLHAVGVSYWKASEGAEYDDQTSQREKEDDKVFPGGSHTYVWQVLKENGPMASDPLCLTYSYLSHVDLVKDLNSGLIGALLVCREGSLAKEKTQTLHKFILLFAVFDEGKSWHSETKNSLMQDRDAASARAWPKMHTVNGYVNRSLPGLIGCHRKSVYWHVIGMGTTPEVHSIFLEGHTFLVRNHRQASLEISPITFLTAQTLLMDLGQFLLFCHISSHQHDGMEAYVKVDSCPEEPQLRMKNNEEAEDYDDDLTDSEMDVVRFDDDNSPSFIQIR
T1 sequence (P00451 392-759 limits assumed): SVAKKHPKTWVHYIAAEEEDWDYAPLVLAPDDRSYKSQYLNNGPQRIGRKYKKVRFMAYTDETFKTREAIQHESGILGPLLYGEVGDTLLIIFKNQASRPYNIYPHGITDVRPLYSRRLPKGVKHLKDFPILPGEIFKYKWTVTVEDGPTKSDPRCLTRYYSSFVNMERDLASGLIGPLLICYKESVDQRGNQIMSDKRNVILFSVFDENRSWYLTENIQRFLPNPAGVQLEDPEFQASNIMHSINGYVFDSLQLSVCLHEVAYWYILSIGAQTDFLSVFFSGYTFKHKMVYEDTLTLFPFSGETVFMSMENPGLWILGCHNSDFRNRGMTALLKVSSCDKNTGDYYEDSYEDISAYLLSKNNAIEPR
T1 sequence (P00451 1709-2351 limits assumed): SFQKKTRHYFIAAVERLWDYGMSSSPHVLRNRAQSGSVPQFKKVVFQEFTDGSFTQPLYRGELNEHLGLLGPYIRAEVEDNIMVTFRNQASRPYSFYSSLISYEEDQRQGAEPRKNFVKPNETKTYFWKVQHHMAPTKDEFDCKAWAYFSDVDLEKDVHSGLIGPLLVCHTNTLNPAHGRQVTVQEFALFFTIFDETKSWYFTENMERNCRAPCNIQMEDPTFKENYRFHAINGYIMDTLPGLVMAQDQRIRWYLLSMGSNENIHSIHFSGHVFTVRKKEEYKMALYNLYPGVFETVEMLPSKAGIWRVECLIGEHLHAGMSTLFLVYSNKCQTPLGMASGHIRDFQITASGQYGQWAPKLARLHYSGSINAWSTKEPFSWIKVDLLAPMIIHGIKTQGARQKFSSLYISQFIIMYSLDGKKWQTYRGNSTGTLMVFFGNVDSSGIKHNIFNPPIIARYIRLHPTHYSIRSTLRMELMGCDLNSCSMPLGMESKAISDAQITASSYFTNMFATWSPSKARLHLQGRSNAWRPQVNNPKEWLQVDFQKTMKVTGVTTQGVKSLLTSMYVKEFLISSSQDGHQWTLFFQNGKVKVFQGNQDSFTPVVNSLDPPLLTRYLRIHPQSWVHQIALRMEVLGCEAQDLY
T1 sequence (P00740 47-191 partner limits assumed): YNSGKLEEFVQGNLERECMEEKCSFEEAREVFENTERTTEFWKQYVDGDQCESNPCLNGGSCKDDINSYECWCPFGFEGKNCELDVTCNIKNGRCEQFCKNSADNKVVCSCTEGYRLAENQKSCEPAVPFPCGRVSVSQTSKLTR
T1 sequence (P00740 227-461 partner limits assumed): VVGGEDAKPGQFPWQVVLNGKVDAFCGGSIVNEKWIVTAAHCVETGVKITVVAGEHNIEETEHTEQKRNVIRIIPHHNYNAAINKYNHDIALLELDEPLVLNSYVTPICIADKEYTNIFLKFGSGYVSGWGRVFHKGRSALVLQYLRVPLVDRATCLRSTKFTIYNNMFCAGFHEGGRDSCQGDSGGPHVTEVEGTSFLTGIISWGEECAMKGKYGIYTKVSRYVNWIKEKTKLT

CCCCCC(=O)OC[C@H](COP(=O)(O)OC[C@H](N)C(=O)O)OC(=O)CCCCC [C6PS, 1,2-dicaproyl-sn-glycero-3-phospho-L-serine]
rate in FVIII chromogenic assay versus C6PS concentration (factor VIII): saturated | monomers in minimal micelle predicted for C6PS [1]: ~200 monomers
